Measurements as given in patent publication US20250221411A1, “SUBSTITUTED BENZAMIDES AS HERBICIDES” (SYNGENTA CROP PROTECTION AG, priority 2021, published 2025).

What was measured:
Assay type in all cases: in vivo
Conditions in all cases: 250 g/h, evaluated after 13 days, five-point scale
[1] = tested on: Ipomoea hederacea (IPOHE); assay: Post-emergence herbicidal glasshouse test, IPOHE
Description: (§1) Seeds of a variety of test species are sown in standard soil in pots Amaranthus retoflexus (AMARE), Abutilon theophrasti (ABUTH), Setaria faberi (SETFA), Echinochloa crus-galli (ECHCG), Ipomoea hederacea (IPOHE)). After cultivation for one day (pre-emergence) or after 8 days cultivation (post-emergence) under controlled conditions in a glasshouse (at 24/16° C., day/night; 14 hours light; 65% humidity), the plants are sprayed with an aqueous spray solution derived from the formulation of the technical active ingredient in acetone/water (50:50) solution containing 0.5% Tween 20 (polyoxyethelyene sorbitan monolaurate, CAS RN 9005-64-5). Compounds are applied at 250 g/h unless otherwise indicated. The test plants are then grown in a glasshouse under controlled conditions in a glasshouse (at 24/16° C., day/night; 14 hours light; 65% humidity) and watered twice daily. After 13 days for pre and post-emergence, the test is evaluated for the percentage damage caused to the plant. The biological activities are shown in the following table on a five-point scale (5=80-100%; 4=60-79%; 3=40-59%; 2=20-39%; 1=0-19%).

[2] = tested on: Ipomoea hederacea (IPOHE); assay: Pre-emergence herbicidal glasshouse test, IPOHE
Description: as §1

[3] = tested on: Setaria faberi (SETFA); assay: Post-emergence herbicidal glasshouse test, SETFA
Description: as §1

[4] = tested on: Echinochloa crus-galli (ECHCG); assay: Post-emergence herbicidal glasshouse test, ECHCG
Description: as §1

[5] = tested on: Amaranthus retoflexus (AMARE); assay: Post-emergence herbicidal glasshouse test, AMARE
Description: as §1

[6] = tested on: Abutilon theophrasti (ABUTH); assay: Pre-emergence herbicidal glasshouse test, ABUTH
Description: as §1

[7] = tested on: Abutilon theophrasti (ABUTH); assay: Post-emergence herbicidal glasshouse test, ABUTH
Description: as §1

[8] = tested on: Setaria faberi (SETFA); assay: Pre-emergence herbicidal glasshouse test, SETFA
Description: as §1

[9] = tested on: Echinochloa crus-galli (ECHCG); assay: Pre-emergence herbicidal glasshouse test, ECHCG
Description: as §1

[10] = tested on: Amaranthus retoflexus (AMARE); assay: Pre-emergence herbicidal glasshouse test, AMARE
Description: as §1

| SMILES | percentage damage caused to the plant, POST Application IPOHE [1] | percentage damage caused to the plant, PRE Application IPOHE [2] | percentage damage caused to the plant, POST Application SETFA [3] | percentage damage caused to the plant, POST Application ECHCG [4] | percentage damage caused to the plant, POST Application AMARE [5] | percentage damage caused to the plant, PRE Application ABUTH [6] | percentage damage caused to the plant, POST Application ABUTH [7] | percentage damage caused to the plant, PRE Application SETFA [8] | percentage damage caused to the plant, PRE Application ECHCG [9] | percentage damage caused to the plant, PRE Application AMARE [10] |
| --- | --- | --- | --- | --- | --- | --- | --- | --- | --- | --- |
| Cn1nnnc1NC(=O)c1ccc(OC(F)(F)F)c(CNC(=O)c2ccc(F)cc2F)c1Cl [Compound 1.010] | 5 (5=80-100%) | 1 (1=0-19%) | 5 (5=80-100%) | 5 (5=80-100%) | 5 (5=80-100%) | 5 (5=80-100%) | 5 (5=80-100%) | 1 (1=0-19%) | 1 (1=0-19%) | 5 (5=80-100%) |
| CCCC(=O)NCc1c(OC(F)(F)F)ccc(C(=O)Nc2nnnn2CC)c1Cl [Compound 1.005] | 5 (5=80-100%) | 1 (1=0-19%) | 5 (5=80-100%) |  | 5 (5=80-100%) | 5 (5=80-100%) | 5 (5=80-100%) | 1 (1=0-19%) | 1 (1=0-19%) | 5 (5=80-100%) |
| Cn1nnnc1NC(=O)c1ccc(OC(F)(F)F)c(CNC(=O)c2ccc(Cl)cc2)c1Cl [Compound 1.011] | 5 (5=80-100%) | 1 (1=0-19%) | 2 (2=20-39%) | 5 (5=80-100%) | 5 (5=80-100%) | 5 (5=80-100%) | 5 (5=80-100%) | 1 (1=0-19%) | 1 (1=0-19%) | 5 (5=80-100%) |
| CCC(=O)N(C)Cc1c(OC(F)(F)F)ccc(C(=O)Nc2nnnn2C)c1Cl [Compound 1.001] | 5 (5=80-100%) | 1 (1=0-19%) | 5 (5=80-100%) | 5 (5=80-100%) | 5 (5=80-100%) | 5 (5=80-100%) | 5 (5=80-100%) | 3 (3=40-59%) | 4 (4=60-79%) | 5 (5=80-100%) |
| CC(=O)NCc1c(OC(F)(F)F)ccc(C(=O)Nc2nnnn2C)c1Cl [Compound 1.009] | 5 (5=80-100%) | 4 (4=60-79%) | 5 (5=80-100%) | 5 (5=80-100%) | 5 (5=80-100%) | 5 (5=80-100%) | 5 (5=80-100%) | 5 (5=80-100%) | 5 (5=80-100%) | 5 (5=80-100%) |
| Cn1nnnc1NC(=O)c1ccc(OC(F)(F)F)c(CNC(=O)c2c(F)cccc2F)c1Cl [Compound 1.008] | 5 (5=80-100%) | 1 (1=0-19%) | 4 (4=60-79%) | 5 (5=80-100%) |  | 5 (5=80-100%) | 5 (5=80-100%) | 2 (2=20-39%) | 2 (2=20-39%) | 5 (5=80-100%) |
| CCC(=O)NCc1c(OC(F)(F)F)ccc(C(=O)Nc2nnnn2C)c1Cl [Compound 1.003, 2-chloro-N-(1-methyltetrazol-5-yl)-3-[(propanoylamino)methyl]-4-(trifluoromethoxy)benzamide] | 5 (5=80-100%) | 3 (3=40-59%) | 5 (5=80-100%) | 5 (5=80-100%) | 5 (5=80-100%) | 5 (5=80-100%) |  | 4 (4=60-79%) | 1 (1=0-19%) | 5 (5=80-100%) |
| CN(Cc1c(OC(F)(F)F)ccc(C(=O)Nc2nnnn2C)c1Cl)C(=O)C1CC1 [Compound 1.002] | 5 (5=80-100%) | 1 (1=0-19%) | 5 (5=80-100%) | 5 (5=80-100%) | 5 (5=80-100%) | 3 (3=40-59%) | 5 (5=80-100%) | 2 (2=20-39%) | 2 (2=20-39%) | 1 (1=0-19%) |
